# Experimental data: patent publication US20240277745A1, “PEMAFIBRATE AND/OR TOFOGLIFLOZIN FOR USE IN TREATING LIVER DISEASE” (KOWA COMPANY, LTD, priority 2021, published 2024)
# Columns and labels:
# [1] = test system: patients with biopsy-confirmed NAFLD and type 2 diabetes; assay: Example 3 clinical trial: metabolic parameters; format: in vivo, human
# Text: (§1) 1. The biopsy consistent with the diagnosis of NAFLD 2. Type 2 diabetes, HbA1c>=7.0% • Hepatic virus infections, autoimmune hepatitis, primary biliary cirrhosis, sclerosing cholangitis, haemochromatosis, antitrypsin deficiency, Wilsons disease, history of parenteral nutrition and use of drugs known to induce steatosis or hepatic injury caused by substance abuse and or the current or past consumption of more than 20 g of alcohol daily • Hypersensitivity to or contraindication of glimepiride and tofogliflozin • None type 2 diabetes • Poorly controlled diabetes • Repeated episodes of unexplained hypoglycemia • Concomitant infection or planned surgery • Poorly controlled hypertension • Severe retinopathy • Malignancy on an active therapeutic regimen or malignancy without complete remission or cure • Severe health problems not suitable for the study • Pregnant or lactating women • Inability to participate in the study as assessed by the investigators. A total of 40 patients were randomly assigned to receive once-daily tofogliflozin at a dose of 20 mg (20 patients) or to receive once-daily glimepiride (20 patients). All 40 patients (100%) completed the trial. Demographic and baseline clinical characteristics except for gender were similar in both groups. The patients were all Japanese and type 2 diabetes. The mean age was 53.9 years, the mean body weight 82.0 kg, the mean Hemoglobin A1c 8.2%, and the mean NAS 4.45. A total of 18 patients (45%) had stage F1 fibrosis, 11 (27.5%) had stage F2, and 5 (12.5%) had stage F3. A total of 40 patients were randomly assigned to receive once-daily tofogliflozin at a dose of 20 mg (20 patients) or to receive once-daily glimepiride (20 patients). All 40 patients (100%) completed the trial. Information for the primary and confirmatory secondary outcomes related to a biopsy at week 48 was available for 39 patients (97.5%). For only one patient with a serious adverse event (2.5%).
# [2] = test system: patients with biopsy-confirmed NAFLD and type 2 diabetes; assay: Example 3 clinical trial: serum enzyme levels and liver test; format: in vivo, human
# Text: as §1
# [3] = test system: patients with biopsy-confirmed NAFLD and type 2 diabetes; assay: Example 3 clinical trial: liver histology (biopsy) at 48 weeks; format: in vivo, human; details: for histologic improvement from baseline to 48 weeks (in words): once-daily treatment
# Text: as §1
# adults with NAFLD [4] = assay: Example 1 clinical study: liver fat content by MRI-PDFF; format: in vivo, human; details: for Liver fat content by MRI-PDFF, Responder / Liver fat content by MRI-PDFF, percent change from baseline: pemafibrate 0.4 mg/day BID; for Liver fat content by MRI-PDFF, mean difference: pemafibrate vs placebo
# Procedure: (§2) This was a placebo-controlled, randomized, double-blind, parallel-group, study in adults with NAFLD. Subjects were administered pemafibrate tablets (0.4 mg/day, BID) or placebo tablets for 72 weeks following a screening period of from 2 to 8 weeks. The primary endpoint was percent change from baseline in liver fat content, measured by MRI-PDFF at week 24. The key secondary endpoints were percent changes in liver stiffness and ALT levels from baseline to week 72 and 24, respectively. The study was conducted in compliance with relevant guidelines, GCP guidance, and the Declaration of Helsinki.
# (§3) Patients with a hepatic fat fraction ≥10% on MRI-PDFF, liver stiffness (measured using magnetic resonance elastography, MRE)≥2.5 kPa and elevated ALT (>40 U/L for men, >30 U/L for women) were enrolled. Patients were excluded in case of body mass index (BMI)<22 kg/m^2, uncontrolled diabetes (HbA1c≥8%), impaired renal function (estimated glomerular filtration rate, eGFR, <30 mL·min^−1·1.73^−1·m^−2 or on dialysis), cirrhosis, biliary obstruction, or chronic liver diseases other than NAFLD.
# (§4) Subjects took their assigned medication (pemafibrate 0.2 mg tablet or placebo) orally, one tablet, twice daily, for 72 weeks. Study visits were set every 4 weeks from the start of treatment to week 24 and every 8 weeks from week 24 onwards. Liver fat content and liver stiffness were measured at screening examinations that took place pre-randomization and subsequently at weeks 0, 24, 48, and 72.
# (§5) All imaging assessment procedures were performed blinded. The equipment used in all facilities was standardized to a 3.0 T MR Imaging System (GE Healthcare, Little Chalfont, UK). As an application, IDEAL-IQ for MRI-PDFF and MR-touch for MRE were used. Detailed imaging conditions are described in the “Imaging Procedure Manual” and imaging procedures were standardized throughout all tests. Imaging was performed during fasting (≥4 h postprandial) and the timing of testing (pre-breakfast/post-breakfast to pre-lunch/post-lunch) was unified for each patient throughout the study.
# (§6) The primary efficacy endpoint was percent change in hepatic fat content, as measured using MRI-PDFF. Liver stiffness measured using MRE was a secondary endpoint and similarly assessed percent change from baseline values. Other efficacy endpoints included liver function, fibrosis and inflammatory markers, and lipid markers.
# adults with NAFLD [5] = assay: Example 1 clinical study: liver stiffness by MRE; format: in vivo, human; details: for Liver stiffness by MRE, Responder / Liver stiffness by MRE, percent change from baseline: pemafibrate 0.4 mg/day BID; for Liver stiffness by MRE, mean difference: pemafibrate vs placebo
# Procedure: as §2, §3, §4, §5, §6
# adults with NAFLD [6] = assay: Example 1 clinical study: lipids; format: in vivo, human; details: for HDL cholesterol, percent change from baseline / LDL cholesterol, percent change from baseline / Non-HDL cholesterol, percent change from baseline / Total cholesterol, percent change from baseline / Triglycerides, percent change from baseline: pemafibrate 0.4 mg/day BID; for HDL cholesterol, mean difference / LDL cholesterol, mean difference / Non-HDL cholesterol, mean difference / Total cholesterol, mean difference / Triglycerides, mean difference: pemafibrate vs placebo
# Procedure: as §2, §3, §4, §6
# adults with NAFLD [7] = assay: Example 1 clinical study: liver function (ALT, AST); format: in vivo, human; details: for ALT, percent change from baseline / AST, percent change from baseline: pemafibrate 0.4 mg/day BID; for ALT, mean difference / AST, mean difference: pemafibrate vs placebo
# Procedure: as §2, §3, §4, §6
# [8] = reported by Ishibashi 2016; cited from earlier work
# [9] = test system: LDL receptor knockout mice and KK-A mice fed with an MCD (methionine-choline-deficient) diet; details: cited from earlier work
# [10] = week 48, P<0.001 for the comparison with glimepiride
# [11] = baseline to 48 weeks, tofogliflozin 20 mg once daily
compound,measurement,setting,value
"CCc1ccc(Cc2ccc3c(c2)[C@]2(OC3)OC(CO)[C@@H](O)C(O)C2O)cc1 (stereo in doubt) [tofogliflozin, 6-((4-ethylphenyl)methyl)-3′,4′,5′,6′-tetrahydro-6′-(hydroxymethyl)spiro(isobenzofuran-1(3H),2′-(2H)pyran)-3′,4′,5′-triol]",BMI (in words),[1]; tofogliflozin 20 mg once daily,significant reduction
same,percentage of body fat (in words),[1]; tofogliflozin 20 mg once daily,significant reduction
same,mean body weight decrease,[1]; [10],4.8 kg
same,FIB-4 index (in words),[2]; tofogliflozin 20 mg once daily,significantly reduced
same,alanine aminotransferase levels (in words),[2]; tofogliflozin 20 mg once daily,early and highly significant decrease
same,aspartate aminotransferase levels (in words),[2]; tofogliflozin 20 mg once daily,early and highly significant decrease
same,"gamma-glutamyl transferase, mean decrease",[2]; [10],23.8 IU/L
same,NAS compared with baseline values (in words),[3]; 48 weeks,improved significantly
same,fibrosis score (in words),[3]; 48 weeks,significantly reduced
same,lobular inflammation score (in words),[3]; 48 weeks,significantly reduced
same,mean ballooning scores (in words),[3]; 48 weeks,significantly reduced
same,mean steatosis scores (in words),[3]; 48 weeks,significantly reduced
same,percentage of steatosis (in words),[3]; 48 weeks,significantly reduced
same,ratio of the patients with improvement in ballooning necrosis,[3]; [11],55%
same,ratio of the patients with improvement in lobular inflammation,[3]; [11],50%
same,ratio of the patients with improvement in steatosis,[3]; [11],65%
same,fibrosis scores improved,"[3]; before and after treatment, 48 weeks, P=0.001",60%
same,histologic improvement from baseline to 48 weeks (in words),[3]; 48 weeks,significant histologic improvements from baseline to 48 weeks in all variables
CCC1=C(C)CN(C(=O)NCCc2ccc(S(=O)(=O)NC(=O)N[C@H]3CC[C@H](C)CC3)cc2)C1=O [glimepiride],NAS compared with baseline values (in words),[3]; 48 weeks,improved significantly
same,mean ballooning scores (in words),[3]; 48 weeks,significantly reduced
same,histologic improvement from baseline to 48 weeks (in words),[3]; 48 weeks,the only histologic improvement from baseline to 48 weeks was a reduction in ballooning necrosis
(R)-2-[3-[[N-(benzoxazol-2-yl)-N-3-(4-methoxyphenoxy)propyl]aminomethyl]phenoxy]butyric acid [Pemafibrate],"Liver fat content by MRI-PDFF, Responder",adults with NAFLD [4]; Week 24,20.7 (12) %
same,"Liver fat content by MRI-PDFF, percent change from baseline",adults with NAFLD [4]; Week 24,−5.28%
same,"Liver fat content by MRI-PDFF, mean difference",adults with NAFLD [4]; Week 24,−1.04%
same,"Liver fat content by MRI-PDFF, Responder",adults with NAFLD [4]; Week 48,10.3 (6) %
same,"Liver fat content by MRI-PDFF, percent change from baseline",adults with NAFLD [4]; Week 48,0.50%
same,"Liver fat content by MRI-PDFF, mean difference",adults with NAFLD [4]; Week 48,1.03%
same,"Liver fat content by MRI-PDFF, Responder",adults with NAFLD [4]; Week 72,22.4 (13) %
same,"Liver fat content by MRI-PDFF, percent change from baseline",adults with NAFLD [4]; Week 72,−4.88%
same,"Liver fat content by MRI-PDFF, mean difference",adults with NAFLD [4]; Week 72,−5.10%
same,liver stiffness when measured by MRE (in words),"adults with NAFLD [5]; Example 1 study, summary",significant improvements
same,"Liver stiffness by MRE, Responder",adults with NAFLD [5]; Week 24,19.0 (11) %
same,"Liver stiffness by MRE, percent change from baseline",adults with NAFLD [5]; Week 24,−5.03%
same,"Liver stiffness by MRE, mean difference",adults with NAFLD [5]; Week 24,−4.38%
same,"Liver stiffness by MRE, Responder",adults with NAFLD [5]; Week 48,37.9 (22) %
same,"Liver stiffness by MRE, percent change from baseline",adults with NAFLD [5]; Week 48,−9.01%
same,"Liver stiffness by MRE, mean difference",adults with NAFLD [5]; Week 48,−5.68%
same,"Liver stiffness by MRE, Responder",adults with NAFLD [5]; Week 72,25.9 (15) %
same,"Liver stiffness by MRE, percent change from baseline",adults with NAFLD [5]; Week 72,−7.27%
same,"Liver stiffness by MRE, mean difference",adults with NAFLD [5]; Week 72,−6.15%
same,HDL cholesterol (in words),"adults with NAFLD [6]; Example 1 study, summary",significant reductions
same,LDL cholesterol (in words),"adults with NAFLD [6]; Example 1 study, summary",significant reductions
same,total cholesterol (in words),"adults with NAFLD [6]; Example 1 study, summary",significant reductions
same,"HDL cholesterol, percent change from baseline",adults with NAFLD [6]; Week 24,−1.68%
same,"LDL cholesterol, percent change from baseline",adults with NAFLD [6]; Week 24,−14.72%
same,"Non-HDL cholesterol, percent change from baseline",adults with NAFLD [6]; Week 24,−13.82%
same,"Total cholesterol, percent change from baseline",adults with NAFLD [6]; Week 24,−11.19%
same,"Triglycerides, percent change from baseline",adults with NAFLD [6]; Week 24,−34.60%
same,"HDL cholesterol, mean difference",adults with NAFLD [6]; Week 24,−7.57%
same,"LDL cholesterol, mean difference",adults with NAFLD [6]; Week 24,−13.66%
same,"Non-HDL cholesterol, mean difference",adults with NAFLD [6]; Week 24,−12.82%
same,"Total cholesterol, mean difference",adults with NAFLD [6]; Week 24,−11.55%
same,"Triglycerides, mean difference",adults with NAFLD [6]; Week 24,−31.11%
same,"HDL cholesterol, percent change from baseline",adults with NAFLD [6]; Week 48,−6.40%
same,"LDL cholesterol, percent change from baseline",adults with NAFLD [6]; Week 48,−14.22%
same,"Non-HDL cholesterol, percent change from baseline",adults with NAFLD [6]; Week 48,−12.95%
same,"Total cholesterol, percent change from baseline",adults with NAFLD [6]; Week 48,−11.55%
same,"Triglycerides, percent change from baseline",adults with NAFLD [6]; Week 48,−27.11%
same,"HDL cholesterol, mean difference",adults with NAFLD [6]; Week 48,−10.24%
same,"LDL cholesterol, mean difference",adults with NAFLD [6]; Week 48,−16.37%
same,"Non-HDL cholesterol, mean difference",adults with NAFLD [6]; Week 48,−14.24%
same,"Total cholesterol, mean difference",adults with NAFLD [6]; Week 48,−13.19%
same,"Triglycerides, mean difference",adults with NAFLD [6]; Week 48,−25.77%
same,"HDL cholesterol, percent change from baseline",adults with NAFLD [6]; Week 72,−7.38%
same,"LDL cholesterol, percent change from baseline",adults with NAFLD [6]; Week 72,−12.48%
same,"Non-HDL cholesterol, percent change from baseline",adults with NAFLD [6]; Week 72,−11.92%
same,"Total cholesterol, percent change from baseline",adults with NAFLD [6]; Week 72,−11.12%
same,"Triglycerides, percent change from baseline",adults with NAFLD [6]; Week 72,−31.55%
same,"HDL cholesterol, mean difference",adults with NAFLD [6]; Week 72,−11.86%
same,"LDL cholesterol, mean difference",adults with NAFLD [6]; Week 72,−15.14%
same,"Non-HDL cholesterol, mean difference",adults with NAFLD [6]; Week 72,−15.77%
same,"Total cholesterol, mean difference",adults with NAFLD [6]; Week 72,−14.86%
same,"Triglycerides, mean difference",adults with NAFLD [6]; Week 72,−32.67%
same,liver function as measured by ALT (in words),"adults with NAFLD [7]; Example 1 study, summary",significant improvements
same,"ALT, percent change from baseline",adults with NAFLD [7]; Week 24,−39.53%
same,"AST, percent change from baseline",adults with NAFLD [7]; Week 24,−9.21%
same,"ALT, mean difference",adults with NAFLD [7]; Week 24,−27.08%
same,"AST, mean difference",adults with NAFLD [7]; Week 24,−2.69%
same,"ALT, percent change from baseline",adults with NAFLD [7]; Week 48,−42.53%
same,"AST, percent change from baseline",adults with NAFLD [7]; Week 48,−9.75%
same,"ALT, mean difference",adults with NAFLD [7]; Week 48,−26.75%
same,"AST, mean difference",adults with NAFLD [7]; Week 48,−0.18%
same,"ALT, percent change from baseline",adults with NAFLD [7]; Week 72,−43.84%
same,"AST, percent change from baseline",adults with NAFLD [7]; Week 72,−9.61%
same,"ALT, mean difference",adults with NAFLD [7]; Week 72,−33.60%
same,"AST, mean difference",adults with NAFLD [7]; Week 72,−4.48%
same,ALT concentrations (in words),[8],much more modest decrease
same,LDL cholesterol (in words),[8],increase
same,total cholesterol (in words),[8],modest decrease
same,"ballooning of hepatocytes, fat deposition, number of Kupffer cells (in words)",[9],suppresses ballooning of hepatocytes and fat deposition and reduces the number of Kupffer cells
